Test results published in patent publication US20260109725A1, “MACROLIDE SENOLYTIC COMPOUNDS” (LUNELLA BIOTECH, INC., priority 2022, published 2026).
Converted amounts (≈) assume the structure as drawn.

Assays:
[1] = tested on: Acinetobacter baumannii ATCC 17978; assay: in vitro broth microdilution assay (MIC); format: cell-based; settings: ATCC17978
Method: (§1) This is advantageous because use of the compounds of the present approach as therapeutic agents will have less of an impact on the development of antibiotic resistance. For example, embodiments of the present approach were screened for antibiotic activity, using the in vitro broth microdilution assay. […] The assay conditions, described by the Clinical and Laboratory Standards Institute were used for preparation of the inoculum, growth medium, and end point reading. Test substance was dissolved in 100% DMSO, suspended completely by vortexing, diluted by 2-fold serial titrations in the same vehicle, for a total of 11 test concentrations. A 4 μL aliquot of each dilution was added to 196 μL of broth medium seeded with the organism suspension in wells of a 96 well plate (bacterial count: 2-8×10(5) colony forming units/mL final). The final volume was 200 μL in each well and the final DMSO concentration was 2 percent. Test concentrations were 0.1 to 100 μM. Following incubation, the test plates were visually examined and wells were scored for growth or complete growth inhibition to define the minimum inhibitory concentration. Each test substance was evaluated with replicates. Vehicle controls and an active reference agent were used as blank and positive controls. Note that MRSA represents methicillin-resistant Staphylococcus aureus, and VRE represents vancomycin resistant Enterococcus.

[2] = tested on: Enterococcus faecalis ATCC 29212; assay: in vitro broth microdilution assay (MIC); format: cell-based; settings: ATCC29212; Enterococcus faecalis ATCC 29212, QC strain
Method: as §1

[3] = tested on: Enterococcus faecium ATCC 700221 VanA VRE; assay: in vitro broth microdilution assay (MIC); format: cell-based
Method: as §1

[4] = tested on: Escherichia coli ATCC 25922; assay: in vitro broth microdilution assay (MIC); format: cell-based; settings: ATCC25922; Escherichia coli ATCC 25922, QC strain
Method: as §1

[5] = tested on: Escherichia coli JW5503 DEL-tolC; assay: in vitro broth microdilution assay (MIC); format: cell-based; settings: JW5503DELTOLC
Method: as §1

[6] = tested on: Haemophilus influenzae ATCC 49247; assay: in vitro broth microdilution assay (MIC); format: cell-based; settings: ATCC49247; Haemophilus influenzae ATCC 49247, QC strain
Method: as §1

[7] = tested on: Klebsiella pneumoniae ATCC 43816; assay: in vitro broth microdilution assay (MIC); format: cell-based; settings: ATCC43816
Method: as §1

[8] = tested on: Pseudomonas aeruginosa ATCC 27853; assay: in vitro broth microdilution assay (MIC); format: cell-based; settings: ATCC27853; Pseudomonas aeruginosa ATCC 27853, QC strain
Method: as §1

[9] = tested on: Staphylococcus aureus ATCC 29213; assay: in vitro broth microdilution assay (MIC); format: cell-based; settings: ATCC29213; Staphylococcus aureus ATCC 29213, QC strain
Method: as §1

[10] = tested on: Staphylococcus aureus ATCC 33591 MRSA; assay: in vitro broth microdilution assay (MIC); format: cell-based
Method: as §1

[11] = tested on: Streptococcus pneumoniae ATCC 49619; assay: in vitro broth microdilution assay (MIC); format: cell-based; settings: ATCC49619; Streptococcus pneumoniae ATCC 49619, QC strain
Method: as §1

[12] = tested on: control MRC-5 cells (normal lung fibroblasts); assay: SRB assay, control (normal) MRC-5 cells; format: cell-based, human
Method: (§2) For example, in one assay bromodeoxyuridine (5-bromo-2′-deoxyuridine), also known as BrdU, was used to induce senescence in a cell population. BrdU is an analog of the nucleoside thymidine commonly used to identify proliferating cells. BrdU induces controlled DNA damage, and drives cells towards senescence with high efficiency. In the BrdU assay, normal fibroblasts are subjected to prolonged culture (8-days) in the presence of BrdU at 100 μM to induce controlled DNA-damage and senescence. […] Senolytic activity was assessed using the sulforhodamine B assay, also known in the art as the SRB assay. This assay measures the amount of protein remaining attached to the tissue-culture dishes, and is a surrogate marker for cell viability.
(§3) FIG. 1 compares SRB assay results for different concentrations of Azithromycin (100 µM and 50 μM) and Compound [I] (100 μM and 50 μM) of the present approach, on both control MRC-5 cells and MRC-5 cells treated with BrdU. […] (labelled as “Azi-Gal” in FIG. 1) for another 5 days. After that, the SRB assay was performed to determine the effects of the drug on cell viability, using normal MRC-5 cells as the control. […] However, at 50 μM Azithromycin had no effect on either the control cells or senescent cells.
(§4) BrdU Assay: Cells were plated into 24-well plates. Next day, half of the plate was treated with 100 μM of BrdU while control wells were treated with vehicle only (DMSO) and incubated for 8 days at 37° C. in a 5% CO2 humidified atmosphere. After 8 days of BrdU treatment cells were treated with various test compounds or drugs (e.g., azithromycin, roxithromycin, telithromycin, erythromycin, etc.) for another 3-5 days. BrdU or vehicle treatments were continued during the drug treatments as well.
(§5) Sulphorhodamine B assay: After the incubation of the plates cell viability was measured by Sulphorhodamine B assay (SRB). The assay is based on the measurement of cellular protein contents. Cells were fixed with 10% Trichloroacetic acid (TCA) for 1 hour at […], and were dried overnight at room temperature. Then, plates were incubated with SRB for 30 min, washed twice with 1% acetic acid and air dried for at least 1 h. Finally, the protein-bound dye was dissolved in a 10 mM Tris, pH 8.8, solution and read using a plate reader at 540-nm.

[13] = tested on: MRC-5 cells treated with BrdU (senescent fibroblasts); assay: SRB assay, BrdU-treated (senescent) MRC-5 cells; format: cell-based, human
Method: as §2, §3, §4, §5

MCF-7 cells = assay: mammosphere formation assay (3D anchorage independent growth); format: cell-based, human
Method: The compounds disclosed herein may also be used as therapeutic agent to selectively eradicate CSCs for treating and/or preventing tumor recurrence and/or metastasis. […] This assay measures the amount of residual protein that adheres to tissue culture dishes and is a surrogate marker of cell viability.
3D Anchorage Independent Growth Assay: This assay is also referred to as the mammosphere formation assay. A single-cell suspension was prepared using enzymatic, and manual disaggregation (25-g needle). Then, cells were plated at a density of 500 cells/cm^2 in mammosphere medium (DMEM-F12+1X B-27 Plus Supplement+20 ng/ml EGF+Pen/Strep) under non-adherent conditions, in culture dishes pre-coated with (2-hydroxyethylmethacrylate) (poly-HEMA, Sigma Aldrich Inc.), called “mammosphere plates.” Cells were grown for 5 days and maintained in a humidified incubator at 37° C. After 5 days of culture, 3D-mammospheres >50 μm were counted using an eye piece (“graticule”), and the percentage of cells plated which formed spheres was calculated and is referred to as percent mammosphere formation, and was normalized to one (1=100% MFE). 3D mammosphere formation efficiency (MFE) was analyzed in both the ATP-low and ATP-high sub-populations of cells. All 3D mammosphere experiments were performed in triplicate, at least 3 times independently.

[14] = SRB, control vs BrdU-treated MRC5

CC[C@H]1OC(=O)[C@H](C)[C@@H](O[C@H]2C[C@@](C)(OC)[C@@H](O)[C@H](C)O2)[C@H](C)[C@@H](O[C@@H]2O[C@H](C)C[C@H](N(C)C)[C@H]2O)[C@](C)(O)C[C@@H](C)CN(C)[C@H](C)[C@@H](O)[C@]1(C)O [Azithromycin, reference compound] showed an MIC [1] of 6.25 µM (≈ 4.68 µg/mL), an MIC [2] of 6.25 µM (≈ 4.68 µg/mL) and an MIC [3] greater than 100 µM. The MIC [4] was 6.25 µM (≈ 4.68 µg/mL), the MIC [5] was 1.56 µM (≈ 1.17 µg/mL) and the MIC [6] was 3.12 µM (≈ 2.34 µg/mL). It also gave an MIC [7] of 25 µM (≈ 18.7 µg/mL), an MIC [8] of 100 µM (≈ 74.9 µg/mL) and an MIC [9] of 1.56 µM (≈ 1.17 µg/mL). For the same compound, the MIC [10] was greater than 100 µM, the MIC [11] was 0.39 µM (≈ 0.292 µg/mL) and the “effect on control cells (SRB)” value ([12]; 50 μM, 5 days) was “no effect”. The “effect on viability of normal MRC-5 lung fibroblasts (SRB)” value ([12]; 100 μM, 5 days) was “no effect”, the “effect on senescent cells (SRB)” value ([13]; 50 μM, 5 days after 8 days BrdU) was “no effect” and the “effect on senescent MRC-5 fibroblasts (SRB)” value ([13]; 100 μM, 5 days after 8 days BrdU) was “selectively killed”. The “inhibition of MCF-7 cells compared to the control (mammosphere formation)” value (MCF-7 cells; 200 μM) was “about 30%” and the IC50 (MCF-7 cells; Homo sapiens, MCF7) was 118 µM.

For CC[C@H]1OC(=O)[C@H](C)[C@@H](O[C@@H]2C[C@@](C)(OC)[C@@H](O)[C@H](C)O2)[C@H](C)[C@@H](O[C@@H]2O[C@H](C)C[C@H](N(C)C)[C@H]2OC(=O)CCC(=O)OCc2ccc(O[C@@H]3O[C@H](COC(C)=O)[C@H](OC(C)=O)[C@H](OC(C)=O)[C@H]3OC(C)=O)c([N+](=O)[O-])c2)[C@](C)(O)C[C@@H](C)CN(C)[C@H](C)[C@@H](O)[C@]1(C)O [Compound [III], O4-[(2S,3R,4S,6R)-4-(dimethylamino)-2-[[(2R,3S,4R,5R,8R,10R,11R,12S,13S,14R)-2-ethyl-3,4,10-trihydroxy-13-[(2S,4R,5S,6S)-5-hydroxy-4-methoxy-4,6-dimethyl-tetrahydropyran-2-yl]oxy-3,5,6,8,10,12,14-heptamethyl-15-oxo-1-oxa-6-azacyclopentadec-11-yl]oxy]-6-methyl-tetrahydropyran-3-yl] O1-[[3-nitro-4-[(2S,3R,4S,5S,6R)-3,4,5-triacetoxy-6-(acetoxymethyl)tetrahydropyran-2-yl]oxy-phenyl]methyl]butanedioate], the “potency relative to the parent compound, Azithromycin (SRB)” value [13, 14] was “about half” and the “senolytic activity compared to Azithromycin and Compound [I]” value [13, 14] was “significantly less senolytic activity”.

In the case of CC[C@H]1OC(=O)[C@H](C)[C@@H](O[C@@H]2C[C@@](C)(OC)[C@@H](O)[C@H](C)O2)[C@H](C)[C@@H](O[C@@H]2O[C@H](C)C[C@H](N(C)C(=O)OCc3ccc(O[C@@H]4O[C@H](COC(C)=O)[C@H](OC(C)=O)[C@H](OC(C)=O)[C@H]4OC(C)=O)c([N+](=O)[O-])c3)[C@H]2O)[C@](C)(O)C[C@@H](C)CN(C)[C@H](C)[C@@H](O)[C@]1(C)O [Compound [IV], [(2R,3S,4S,5R,6S)-3,4,5-triacetoxy-6-[4-[[[(2S,3R,4S,6R)-2-[[(2R,3S,4R,5R,8R,10R,11R,12S,13S,14R)-2-ethyl-3,4,10-trihydroxy-13-[(2S,4R,5S,6S)-5-hydroxy-4-methoxy-4,6-dimethyl-tetrahydropyran-2-yl]oxy-3,5,6,8,10,12,14-heptamethyl-15-oxo-1-oxa-6-azacyclopentadec-11-yl]oxy]-3-hydroxy-6-methyl-tetrahydropyran-4-yl]-methyl-carbamoyl]oxymethyl]-2-nitro-phenoxy]tetrahydropyran-2-yl]methyl acetate], the “selectivity for senescent cells over normal, non-senescent cells (SRB)” value ([13]; control vs BrdU-treated MRC5) is reported as “no little selectivity”.

CC[C@H]1OC(=O)[C@H](C)[C@@H](O[C@@H]2C[C@@](C)(OC)[C@@H](O)[C@H](C)O2)[C@H](C)[C@@H](O[C@@H]2O[C@H](C)C[C@H](N(C)C)[C@H]2OC(=O)OCc2ccc(O[C@@H]3O[C@H](COC(C)=O)[C@H](OC(C)=O)[C@H](OC(C)=O)[C@H]3OC(C)=O)c([N+](=O)[O-])c2)[C@](C)(O)C[C@@H](C)C(=O)[C@H](C)[C@@H](O)[C@]1(C)O [Compound [VI], 2R,3S,4S,5R,6S)-3,4,5-triacetoxy-6-[4-[[(2S,3R,4S,6R)-4-(dimethylamino)-2-[[(3R,4S,5S,6R,7R,9R,11R,12R,13S,14R)-14-ethyl-7,12,13-trihydroxy-4-[(2S,4R,5S,6S)-5-hydroxy-4-methoxy-4,6-dimethyl-tetrahydropyran-2-yl]oxy-3,5,7,9,11,13-hexamethyl-2,10-dioxo-oxacyclotetradec-6-yl]oxy]-6-methyl-tetrahydropyran-3-yl]oxycarbonyloxymethyl]-2-nitro-phenoxy]tetrahydropyran-2-yl]methyl acetate] was tested, and the “preference for normal, non-senescent control cells (SRB)” value ([12]; compared to Roxithromycin and Erythromycin) was “preference for the normal, non-senescent control cells” and the “effect on the senescent cells (SRB)” value ([13]; BrdU-treated MRC5) was “little effect”.
